Results taken from patent publication US8124764B2, “Fused heterocyclyc inhibitor compounds” (Gilead Sciences, Inc., priority 2008, dated 2012).

Legend:
[1] = biological target: HDAC 1 (Homo sapiens, UniProt Q13547); test: HDAC 1 inhibition assay with about 3 hours enzyme/compound preincubation (fluorophore/quencher peptide substrate); type: biochemical; details: 3-hour preincubation of enzyme with compound; read-out: HDAC 1 inhibitory activity (IC50 [μM]) (3-hour preincubation)
Description: HDAC inhibitory activity of the compound of Example 1 was measured by two types of assays in which HDAC 1 was used as a target molecule. The first assay was carried out without preincubation after addition of the enzyme. The test compound was suspended in and titrated in dmso. It was then spotted into a 384-well test plate. The enzyme, HDAC 1, was diluted in assay buffer containing 25 mM Tris-HCl (pH 8.0), 137 mM NaCl, 2.7 mM KCl, and 0.01% Tween-20 and added to the pre-spotted compound. The peptide substrate containing a fluorophore/quencher pair was diluted in the same assay buffer and added to the compound/enzyme mix initiating the reaction. The reaction incubated at room temperature for about 45 minutes. A concentrated developer solution was diluted in the assay buffer, and added to the reaction. The reaction was incubated at room temperature for about 15 minutes and relative fluorescence was read on an instrument reader.
The second assay is similar to the first assay described above, except that preincubation is carried out for about 3 hours after the enzyme is introduced. The test compound was suspended in, and titrated in DMSO. It was then spotted into a 384-well test plate. The enzyme, HDAC 1, was diluted in the same assay buffer as used in the previous assay and added to the pre-spotted compound. The enzyme/compound mix was incubated at room temperature for about 3 hours. The peptide substrate containing a fluorophore/quencher pair was diluted in the assay buffer and added to the compound/enzyme mix initiating the reaction. The reaction incubated at room temperature for 45 minutes. A concentrated developer solution was diluted in the assay buffer, and added to the reaction. The reaction was incubated at room temperature for about 15 minutes and relative fluorescence was read on an instrument reader.

[2] = biological target: CDK2 (Homo sapiens, UniProt P24941); test: CDK2 inhibition; type: biochemical

Chain of HDAC 1 (Q13547 whole entry, species assumed): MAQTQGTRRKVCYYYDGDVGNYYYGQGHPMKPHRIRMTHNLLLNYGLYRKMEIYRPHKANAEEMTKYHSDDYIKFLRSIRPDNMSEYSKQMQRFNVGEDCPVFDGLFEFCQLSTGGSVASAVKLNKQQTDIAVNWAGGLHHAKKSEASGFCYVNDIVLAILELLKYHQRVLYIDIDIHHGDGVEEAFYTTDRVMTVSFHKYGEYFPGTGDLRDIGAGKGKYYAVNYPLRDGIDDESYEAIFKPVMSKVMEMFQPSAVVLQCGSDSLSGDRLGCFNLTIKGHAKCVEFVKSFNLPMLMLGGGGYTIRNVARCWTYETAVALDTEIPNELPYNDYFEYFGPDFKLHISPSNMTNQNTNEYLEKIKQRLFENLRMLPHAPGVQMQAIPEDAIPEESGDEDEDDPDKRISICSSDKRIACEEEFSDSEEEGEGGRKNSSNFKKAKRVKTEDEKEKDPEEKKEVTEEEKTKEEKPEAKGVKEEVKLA

Structure (SMILES)	IC50 [1] [µM]	IC50 [2] [µM]
Cc1nc2cc(N3CCOCC3)ccn2c1-c1ccnc(Nc2ccc(C(=O)Nc3ccccc3N)cc2)n1 [Example 23, N-(2-Amino-phenyl)-4-[4-(2-methyl-7-morpholin-4-yl-imidazo[1,2-a]pyridin-3-yl)-pyrimidin-2-ylamino]-benzamide]	5.29	0.67
Nc1ccccc1NC(=O)c1ccc(Nc2ncc(F)c(-c3cnc4ccccn34)n2)cc1 [Example 50, N-(2-Amino-phenyl)-4-(5-fluoro-4-imidazo[1,2-a]pyridin-3-yl-pyrimidin-2-ylamino)-benzamide]	> 20	0.06
O=C(NO)c1ccc(Nc2ncc(F)c(-c3cnc4ccccn34)n2)cc1 [Example 51, 4-(5-Fluoro-4-imidazo[1,2-a]pyridin-3-yl-pyrimidin-2-ylamino)-N-hydroxy-benzamide]	0.211	0.014
Cc1nc2ccccn2c1-c1ccnc(Nc2ccc(C(=O)Nc3ccccc3N)cn2)c1 [Example 70, N-(2-aminophenyl)-6-(4-(2-methylimidazo[1,2-a]pyridin-3-yl)pyridin-2-ylamino)nicotinamide]	0.073	0.87
Cc1nc2ncccn2c1-c1ccnc(Nc2ccc(C(=O)Nc3ccccc3N)cc2)n1 [Example 22, N-(2-Amino-phenyl)-4-[4-(2-methyl-imidazo[1,2-a]pyrimidin-3-yl)-pyrimidin-2-ylamino]-benzamide]	0.071	2.87
Cc1nc2ccccn2c1-c1ccnc(Nc2cccc(C(=O)NO)c2)n1 [Example 3, N-Hydroxy-3-[4-(2-methyl-imidazo[1,2-a]pyridin-3-yl)-pyrimidin-2-ylamino]-benzamide]	0.011	0.18
COCCNC(=O)c1ccc2nc(C)c(-c3ccnc(Nc4ccc(C(=O)Nc5ccccc5N)cc4)n3)n2c1 [Example 38, 3-(2-(4-(2-aminophenylcarbamoyl)phenylamino)pyrimidin-4-yl)-N-(2-methoxyethyl)-2-methylimidazo[1,2-a]pyridine-6-carboxamide]	0.312	2.74
Cc1nc2cccnn2c1-c1ccnc(Nc2ccc(C(=O)NO)cc2)n1 [Example 17, N-Hydroxy-4-[4-(2-methyl-imidazo[1,2-b]pyridazin-3-yl)-pyrimidin-2-ylamino]-benzamide]	0.273	0.034
Nc1ccccc1NC(=O)c1ccc(Nc2nccc(-c3cnc4ccccn34)n2)cc1 [Example 6, N-(2-Amino-phenyl)-4-(4-imidazo[1,2-a]pyridin-3-yl-pyrimidin-2-ylamino)-benzamide]	0.197	0.084
Cc1nc2ncccn2c1-c1ccnc(Nc2ccc(C(=O)NO)cc2)n1 [Example 21, N-Hydroxy-4-[4-(2-methyl-imidazo[1,2-a]pyrimidin-3-yl)-pyrimidin-2-ylamino]-benzamide]	0.289	1.18
Cc1nc2ccccn2c1-c1ccnc(Nc2ccc(C(=O)NO)c(F)c2)n1 [Example 35, 2-Fluoro-N-hydroxy-4-[4-(2-methyl-imidazo[1,2-a]pyridin-3-yl)-pyrimidin-2-ylamino]-benzamide]	0.128	0.06
Nc1ccccc1NC(=O)c1ccc(Nc2cc(-c3cnc4ccccn34)ncn2)cc1 [Example 55, N-(2-Amino-phenyl)-4-(6-imidazo[1,2-a]pyridin-3-yl-pyrimidin-4-ylamino)-benzamide]	0.2	> 40
Cc1nc2cc(OCCN3CCOCC3)ccn2c1-c1ccnc(Nc2ccc(C(=O)Nc3ccccc3N)cc2)n1 [Example 29, N-(2-aminophenyl)-4-(4-(2-methyl-7-(2-morpholinoethoxy)imidazo[1,2-a]pyridin-3-yl)pyrimidin-2-ylamino)benzamide]	0.315	2.13
Cc1nc2ccccn2c1-c1ccnc(Nc2cnc(C(=O)NO)cn2)n1 [Example 67, N-hydroxy-5-(4-(2-methylimidazo[1,2-a]pyridin-3-yl)pyrimidin-2-ylamino)pyrazine-2-carboxamide]	0.169	0.68
Cc1nc2ccccn2c1-c1ccnc(Nc2ncc(C(=O)NO)s2)c1 [Example 73, N-hydroxy-2-(4-(2-methylimidazo[1,2-a]pyridin-3-yl)pyridin-2-ylamino)thiazole-5-carboxamide]	0.185	1.68
Cc1nc2ccccn2c1-c1ccnc(Nc2ccc(C(=O)Nc3ccccc3N)cn2)n1 [Example 66, N-(2-aminophenyl)-6-(4-(2-methylimidazo[1,2-a]pyridin-3-yl)pyrimidin-2-ylamino)nicotinamide]	0.289	3.48
Cc1nc2ccccn2c1-c1ccnc(Nc2ccc(C(=O)Nc3ccccc3N)c(F)c2)n1 [Example 36, N-(2-Amino-phenyl)-2-fluoro-4-[4-(2-methyl-imidazo[1,2-a]pyridin-3-yl)-pyrimidin-2-ylamino]-benzamide]	> 10	0.11
Cc1nc2ccc(C(=O)N3CCN(C)CC3)cn2c1-c1ccnc(Nc2ccc(C(=O)Nc3ccccc3N)cc2)n1 [Example 39, N-(2-Amino-phenyl)-4-{4-[2-methyl-6-(4-methyl-piperazine-1-carbonyl)-imidazo[1,2-a]pyridin-3-yl]-pyrimidin-2-ylamino}-benzamide]	0.563	7.94
Nc1ccccc1NC(=O)c1ccc(Nc2nccc(-c3c(C(F)(F)F)nc4ccccn34)n2)cc1 [Example 16, N-(2-Amino-phenyl)-4-[4-(2-trifluoromethyl-imidazo[1,2-a]pyridin-3-yl)-pyrimidin-2-ylamino]-benzamide]	0.295	0.16
Cc1nc2ccc(Br)cn2c1-c1ccnc(Nc2ccc(C(=O)Nc3ccccc3N)cc2)n1 [Example 47, N-(2-Amino-phenyl)-4-[4-(6-bromo-2-methyl-imidazo[1,2-a]pyridin-3-yl)-pyrimidin-2-ylamino]-benzamide]	> 10	0.14

Second part, the compound after the results:

IC50 [1] [µM]	IC50 [2] [µM]	Structure (SMILES)
0.0937	0.07	Cc1nc2cnccn2c1-c1ccnc(Nc2ccc(C(=O)NO)cc2)n1 [Example 19, N-Hydroxy-4-[4-(2-methyl-imidazo[1,2-a]pyrazin-3-yl)-pyrimidin-2-ylamino]-benzamide]
> 10	0.084	Cc1nc2cc(C(F)(F)F)ccn2c1-c1ccnc(Nc2ccc(C(=O)Nc3ccccc3N)cc2)n1 [Example 10, N-(2-Amino-phenyl)-4-[4-(2-methyl-7-trifluoromethyl-imidazo[1,2-a]pyridin-3-yl)-pyrimidin-2-ylamino]-benzamide]
0.104	6.47	Cc1nc2ccccn2c1-c1ccnc(Nc2ncc(C(=O)NO)cn2)c1 [Example 74, N-hydroxy-2-(4-(2-methylimidazo[1,2-a]pyridin-3-yl)pyridin-2-ylamino)pyrimidine-5-carboxamide]
0.993	0.04	Cc1nc2ccccn2c1-c1ccnc(Nc2cc(C(=O)Nc3ccccc3N)cs2)n1 [Example 59, N-(2-aminophenyl)-5-(4-(2-methylimidazo[1,2-a]pyridin-3-yl)pyrimidin-2-ylamino)thiophene-3-carboxamide]
0.251	0.09	Cc1nc2c(F)cccn2c1-c1ccnc(Nc2ccc(C(=O)NO)cc2)n1 [Example 44, 4-[4-(8-Fluoro-2-methyl-imidazo[1,2-a]pyridin-3-yl)-pyrimidin-2-ylamino]-N-hydroxy-benzamide]
0.31	0.07	Cc1nc2ccccn2c1-c1ccnc(Nc2ccc(C(=O)NO)s2)n1 [Example 52, N-hydroxy-5-(4-(2-methylimidazo[1,2-a]pyridin-3-yl)pyrimidin-2-ylamino)thiophene-2-carboxamide]
0.164	0.03	Cc1nc2ccccn2c1-c1ccnc(Nc2cc(C(=O)NO)cs2)n1 [Example 60, N-hydroxy-5-(4-(2-methylimidazo[1,2-a]pyridin-3-yl)pyrimidin-2-ylamino)thiophene-3-carboxamide]
5.58	> 40	Nc1ccccc1NC(=O)c1ccc(N(CC(F)(F)F)c2nccc(-c3cnc4ccccn34)n2)cc1 [Example 58, N-(2-Amino-phenyl)-4-[(4-imidazo[1,2-a]pyridin-3-yl-pyrimidin-2-yl)-(2,2,2-trifluoro-ethyl)-amino]-benzamide]
0.374	4.64	Cc1nc2cc(C(=O)N3CCN(C)CC3)ccn2c1-c1ccnc(Nc2ccc(C(=O)Nc3ccccc3N)cc2)n1 [Example 27, N-(2-Amino-phenyl)-4-{4-[2-methyl-7-(4-methyl-piperazine-1-carbonyl)-imidazo[1,2-a]pyridin-3-yl]-pyrimidin-2-ylamino}-benzamide]
0.109	1.86	Cc1nc2ccccn2c1-c1ccnc(Nc2ncc(C(=O)NO)s2)n1 [Example 65, N-hydroxy-2-(4-(2-methylimidazo[1,2-a]pyridin-3-yl)pyrimidin-2-ylamino)thiazole-5-carboxamide]
